Data from ChEMBL document CHEMBL4382280, “Inhibitors of G12C Mutant Ras Proteins for the Treatment of Cancers” (ACS Med Chem Lett, 2019).

Target: GTPase KRas (Homo sapiens, UniProt P01116, G12C)
Test: Inhibition of GDP loaded biotin-labeled KRAS G12C mutant (unknown origin) assessed as reduction in guanine nucleotide exchange preincubated for 4 hrs followed by GST-RAF-RBD addition in presence of GTPgammaS by FRET assay

GTPase KRas, sequence (P01116 whole entry G12C): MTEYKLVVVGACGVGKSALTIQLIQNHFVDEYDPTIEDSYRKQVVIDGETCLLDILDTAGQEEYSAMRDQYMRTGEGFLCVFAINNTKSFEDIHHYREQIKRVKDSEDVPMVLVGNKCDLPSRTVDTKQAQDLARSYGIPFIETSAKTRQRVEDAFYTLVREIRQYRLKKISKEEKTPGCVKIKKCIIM

Row | Structure (SMILES) | IC50
1 | C=CC(=O)N1CCN2c3ncnc4cc(-c5c(C)ccc6[nH]ncc56)c(Cl)c(c34)OC[C@@H]2C1 (stereo in doubt; form 1) | 123 nM
2 | C=CC(=O)N1CCN2c3ncnc4cc(-c5c(C)ccc6[nH]ncc56)c(Cl)c(c34)OC[C@@H]2C1 (stereo in doubt; form 3) | 12 nM
